Values of other authors in publication PMC7466129, “Solid Lipid Nanoparticles for Duodenum Targeted Oral Delivery of Tilmicosin” (Pharmaceutics, 2020).
Values after ≈ are worked out from the molar mass of the structure shown.

What was measured:
[1] = parameters: method as in PMID 31614726; conditions: 100 °C, 30 min
[2] = test system: Actinobacillus pleuropneumoniae; parameters: method as in PMID 29139136
[3] = test system: Mycoplasma; parameters: method as in PMID 29149886

CC[C@H]1OC(=O)C[C@@H](O)[C@H](C)[C@@H](O[C@@H]2O[C@H](C)[C@@H](O)[C@H](N(C)C)[C@H]2O)[C@@H](CCN2C[C@H](C)C[C@H](C)C2)C[C@@H](C)C(=O)/C=C/C(C)=C/[C@@H]1CO[C@@H]1O[C@H](C)[C@@H](O)[C@@H](OC)[C@H]1OC [tilmicosin, Tilmicosin]
saturation solubility in carnauba wax [1]: 50% | saturation solubility in hydrogenated castor oil [1]: 25% | minimum inhibitory concentration (MIC) [2]: 0.5 µg/mL (≈ 0.575 µM) | minimum inhibitory concentration (MIC) [3]: ≤ 0.25 µg/mL
